melting point [°C]	SMILES
128 to 130	CC1(C)C=CN(C(=O)Nc2ccccc2)C=C1
155 to 156	CC(C)(C)n1nc(-c2ccc(C(F)(F)F)cc2)c(C#N)c1N
162 to 164	CC(C)(Nc1ccc(Cl)cc1[N+](=O)[O-])C(=O)O
270 to 273	COc1ccc(C(=O)Nc2ccc(C(=O)NC(C)(C)C)cc2)cc1C12CC3CC(CC(C3)C1)C2
110 to 113	COc1ccc(N2CCN(C[C@@H](O)COc3cccc(-c4noc5ccsc45)c3)CC2)cc1
73 to 75	Nc1ccc2c(c1-c1ccccc1)CCC2
95 to 97	CCOC(=O)N(c1ccccc1N)c1cccc(C)c1C
139 to 141	Fc1cc(F)c(-c2c(Cl)nc3nccnc3c2Cl)c(F)c1
218 to 220	COc1ccc(C(=O)NNC(=O)N(C)C)cc1
93 to 94	CCOC(=O)C(O)CCc1ccc(OC)c(OCc2ccccc2)c1 (stereo not given)
106 to 107	COc1ccc(Nc2nc3ccccc3c3[nH]c(C4CCCC4)nc23)cc1
> 230	Cn1c(C(F)(F)F)cc(=O)n(-c2ccc3snc(CP(=O)(O)O)c3c2)c1=O
184 to 186	O=c1cccccc1N1CCN(c2cccccc2=O)CC1
156 to 159	CC(C)(C)OC(=O)N[C@@H]1CN(C2CCCCC2)c2ccccc2NC1=O
137 to 138	COc1cc(OCn2nnc3ccccc32)c(C=O)cc1-c1cccs1
70 to 72	COC(=O)[C@H](Cc1cccc2ccccc12)NC(=O)[C@H](CC(=O)OC(C)(C)C)NC(=O)c1cccc(N)c1
148 to 150	CC(C)n1nc(-c2nc(Sc3ccc(F)cc3)c(N)nc2-c2ccccc2)ccc1=O
249 to 250	CCOC1CC(n2cc(CC)c(=O)[nH]c2=O)OC1CNC(=O)Cc1c(Cl)cccc1Cl (stereo not given)
139 to 141	CCCCC(Oc1ccccc1)C(=O)OC1CC(O)C=C2C=CC(C)C(CCC3CC(O)CC(=O)O3)C21 (mixture of isomers)

melting point [°C]	SMILES
75	c1ccc(-c2ccon2)cc1
172 to 173	OC(Cn1ccnc1)(c1ccc(Cl)cc1)C1(Oc2ccc(Cl)cc2)CC1 (stereo not given)
297 to 299	O=c1[nH]nc2c(Br)cccn12
192 to 194	Cc1cc(=O)n2nc(S(=O)(=O)Cc3ccc(Cl)cc3)sc2n1
213 to 214	CC1(C)CCC(C)(C)c2cc(C(C(=O)O)C(=O)Nc3ccc(C(=O)O)cc3)ccc21 (stereo not given)
163 to 164	OCc1cn(-c2ccc3c(c2)OC(F)(F)O3)cn1
70 to 72	CN1C(=O)C(c2ccc(OCCCCBr)cc2)Sc2cc(Cl)ccc21 (stereo not given)
180 to 182	CCOC(=O)CNc1ccc(C2=NNC(=O)NC2C)cc1 (stereo not given)
205 to 206	CC(=O)Nc1ccc(O)c(C(=O)CCC(=O)O)c1
249 to 252	O=C(O)c1cc2c(F)ccc(Br)c2s1
125 to 127	C[Si](C)(Cc1ccc(N(c2ccccc2)c2ccccc2)cc1)Cc1ccc(N(c2ccccc2)c2ccccc2)cc1
164 to 165	NC(=O)CNC(=O)c1ccc(-c2cccc3cc(COc4cccc(C(F)(F)F)c4)sc23)cc1
113 to 115	O=CC1c2ccccc2C(C=O)c2cc(Cl)ccc21 (stereo not given)
108 to 111	C=CCN1CCN(c2nc3cccccc-3n2)CC1
234 to 236	COc1cc(C(=O)n2c3c(c4ccccc42)CC(C(=O)O)CC3)cc(OC)c1OC (stereo not given)
211 to 212	Cn1ncc(/C=C/C(=O)Nc2ccc(CCc3cscn3)cc2)c1-c1ccc(F)cc1
92 to 93	COc1ccc2ncc(CO)cc2c1
217	CCOc1ccc(Nc2cc(C)nc3cn[nH]c23)cc1
121 to 123	CN=C(NS(=O)(=O)c1ccc(Cl)cc1)SC

SMILES	melting point [°C]
O=C(Cc1ccc(Cl)c(Cl)c1)N1CCC2(CC1CN1CCCC1)SCCS2 (stereo not given)	119 to 120
CN1C(=O)CN=C(c2cccc(Cl)c2)c2cc(C(O)(c3ccc(Cl)cc3)c3cncn3C)ccc21 (stereo not given)	226
